We go through seven molecules from ChEMBL document CHEMBL5442219.

SMILES strings stand for the structures.

What all share (conditions): Compound concentration 10 µM
Assay [1] addresses T1, Alpha-2B adrenergic receptor (Homo sapiens) (UniProt P18089).
T1 sequence (whole entry): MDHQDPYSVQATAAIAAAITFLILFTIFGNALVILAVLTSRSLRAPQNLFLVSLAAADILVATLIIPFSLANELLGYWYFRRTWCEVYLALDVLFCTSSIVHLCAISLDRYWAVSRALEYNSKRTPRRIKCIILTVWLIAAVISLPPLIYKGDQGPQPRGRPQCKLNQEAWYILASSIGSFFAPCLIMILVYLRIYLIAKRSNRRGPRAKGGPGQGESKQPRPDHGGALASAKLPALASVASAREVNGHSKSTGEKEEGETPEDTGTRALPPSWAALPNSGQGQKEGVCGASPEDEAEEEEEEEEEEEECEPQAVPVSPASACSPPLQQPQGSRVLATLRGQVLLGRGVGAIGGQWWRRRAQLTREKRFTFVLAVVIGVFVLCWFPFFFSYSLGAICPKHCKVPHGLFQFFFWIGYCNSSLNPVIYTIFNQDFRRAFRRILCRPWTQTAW
Description: PDSP Primary Binding target: ADRA2B - Compounds are tested at 10 uM concentration, plate are incubated at room temperature in the dark for 90 minutes. Reaction are stopped by vacuum filtration onto 0.3% polyethyleneimine soaked filter mats using Filtermate harvester. Scintilation cocktail is then melted onto microwave-dried filters on a hot plate and the radio activity is counted in Microbia counter.

For assay [2], the target named is Beta-1 adrenergic receptor (Homo sapiens) (UniProt P08588).
Chain of Beta-1 adrenergic receptor (Homo sapiens) (P08588 whole entry, looked up): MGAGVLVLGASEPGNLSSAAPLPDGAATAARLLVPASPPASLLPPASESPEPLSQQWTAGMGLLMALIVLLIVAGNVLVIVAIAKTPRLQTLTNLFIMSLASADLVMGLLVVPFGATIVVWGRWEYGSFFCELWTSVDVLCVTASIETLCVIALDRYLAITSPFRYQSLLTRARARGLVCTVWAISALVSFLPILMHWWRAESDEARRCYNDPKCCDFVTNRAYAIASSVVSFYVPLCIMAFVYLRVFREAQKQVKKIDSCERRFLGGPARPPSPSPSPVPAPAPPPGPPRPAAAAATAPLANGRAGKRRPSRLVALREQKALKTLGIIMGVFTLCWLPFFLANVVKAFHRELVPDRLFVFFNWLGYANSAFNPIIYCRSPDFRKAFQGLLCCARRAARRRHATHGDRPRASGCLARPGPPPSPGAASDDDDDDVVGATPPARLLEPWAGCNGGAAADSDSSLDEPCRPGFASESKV
Description: PDSP Primary Binding target: ADRB1 - Compounds are tested at 10 uM concentration, plate are incubated at room temperature in the dark for 90 minutes. Reaction are stopped by vacuum filtration onto 0.3% polyethyleneimine soaked filter mats using Filtermate harvester. Scintilation cocktail is then melted onto microwave-dried filters on a hot plate and the radio activity is counted in Microbia counter.
In assay [3] the target is Beta-2 adrenergic receptor (Homo sapiens) (UniProt P07550).
Chain of Beta-2 adrenergic receptor (Homo sapiens) (P07550 whole entry, looked up): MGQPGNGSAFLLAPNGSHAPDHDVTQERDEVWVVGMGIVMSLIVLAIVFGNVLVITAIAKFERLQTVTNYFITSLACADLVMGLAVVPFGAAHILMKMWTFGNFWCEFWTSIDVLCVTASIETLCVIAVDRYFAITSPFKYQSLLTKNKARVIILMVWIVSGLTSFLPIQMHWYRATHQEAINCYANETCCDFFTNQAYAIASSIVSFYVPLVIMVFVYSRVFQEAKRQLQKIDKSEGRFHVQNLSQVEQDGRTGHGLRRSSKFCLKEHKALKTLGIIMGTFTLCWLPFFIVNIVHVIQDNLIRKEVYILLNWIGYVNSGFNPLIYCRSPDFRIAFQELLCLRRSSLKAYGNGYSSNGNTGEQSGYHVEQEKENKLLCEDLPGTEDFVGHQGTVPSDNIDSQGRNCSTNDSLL
Description: PDSP Primary Binding target: ADRB2 - Compounds are tested at 10 uM concentration, plate are incubated at room temperature in the dark for 90 minutes. Reaction are stopped by vacuum filtration onto 0.3% polyethyleneimine soaked filter mats using Filtermate harvester. Scintilation cocktail is then melted onto microwave-dried filters on a hot plate and the radio activity is counted in Microbia counter.
Assay [4] deals with T2, Muscarinic acetylcholine receptor M1 (Homo sapiens) (UniProt P11229).
T2 sequence (whole entry): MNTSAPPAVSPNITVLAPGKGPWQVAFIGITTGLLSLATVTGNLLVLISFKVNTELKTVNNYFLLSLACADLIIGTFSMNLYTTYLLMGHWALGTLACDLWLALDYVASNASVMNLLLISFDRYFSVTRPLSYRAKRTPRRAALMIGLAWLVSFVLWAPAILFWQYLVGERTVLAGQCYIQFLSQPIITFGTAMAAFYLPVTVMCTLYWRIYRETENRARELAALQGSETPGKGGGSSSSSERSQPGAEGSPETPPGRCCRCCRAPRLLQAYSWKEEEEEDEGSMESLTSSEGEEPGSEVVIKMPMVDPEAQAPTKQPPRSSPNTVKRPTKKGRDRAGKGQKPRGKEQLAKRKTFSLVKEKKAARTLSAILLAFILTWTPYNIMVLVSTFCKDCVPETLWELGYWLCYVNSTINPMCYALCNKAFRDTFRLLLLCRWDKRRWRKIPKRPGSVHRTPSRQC
Description: PDSP Primary Binding target: CHRM1 - Compounds are tested at 10 uM concentration, plate are incubated at room temperature in the dark for 90 minutes. Reaction are stopped by vacuum filtration onto 0.3% polyethyleneimine soaked filter mats using Filtermate harvester. Scintilation cocktail is then melted onto microwave-dried filters on a hot plate and the radio activity is counted in Microbia counter.

In assay [5] the target is D(1A) dopamine receptor (Homo sapiens) (UniProt P21728).
Description: PDSP Primary Binding target: DRD1 - Compounds are tested at 10 uM concentration, plate are incubated at room temperature in the dark for 90 minutes. Reaction are stopped by vacuum filtration onto 0.3% polyethyleneimine soaked filter mats using Filtermate harvester. Scintilation cocktail is then melted onto microwave-dried filters on a hot plate and the radio activity is counted in Microbia counter.
Assay [6] has as its target D(2) dopamine receptor (Homo sapiens) (UniProt P14416).
Description: PDSP Primary Binding target: DRD2 - Compounds are tested at 10 uM concentration, plate are incubated at room temperature in the dark for 90 minutes. Reaction are stopped by vacuum filtration onto 0.3% polyethyleneimine soaked filter mats using Filtermate harvester. Scintilation cocktail is then melted onto microwave-dried filters on a hot plate and the radio activity is counted in Microbia counter.
Assay [7] has as its target 5-hydroxytryptamine receptor 1B (Homo sapiens) (UniProt P28222).
Description: PDSP Primary Binding target: HTR1B - Compounds are tested at 10 uM concentration, plate are incubated at room temperature in the dark for 90 minutes. Reaction are stopped by vacuum filtration onto 0.3% polyethyleneimine soaked filter mats using Filtermate harvester. Scintilation cocktail is then melted onto microwave-dried filters on a hot plate and the radio activity is counted in Microbia counter.
The target of assay [8] is 5-hydroxytryptamine receptor 1D (Homo sapiens) (UniProt P28221).
Chain of 5-hydroxytryptamine receptor 1D (Homo sapiens) (P28221 whole entry): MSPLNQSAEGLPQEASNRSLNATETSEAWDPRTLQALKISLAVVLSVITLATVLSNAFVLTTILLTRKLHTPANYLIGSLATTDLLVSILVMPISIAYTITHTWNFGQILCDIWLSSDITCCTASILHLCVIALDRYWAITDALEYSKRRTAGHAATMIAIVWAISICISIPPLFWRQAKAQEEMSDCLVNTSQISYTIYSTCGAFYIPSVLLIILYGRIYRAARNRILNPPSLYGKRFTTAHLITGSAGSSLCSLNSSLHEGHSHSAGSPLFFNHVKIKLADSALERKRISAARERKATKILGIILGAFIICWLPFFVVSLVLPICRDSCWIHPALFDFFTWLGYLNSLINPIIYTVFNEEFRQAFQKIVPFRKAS
Description: PDSP Primary Binding target: HTR1D - Compounds are tested at 10 uM concentration, plate are incubated at room temperature in the dark for 90 minutes. Reaction are stopped by vacuum filtration onto 0.3% polyethyleneimine soaked filter mats using Filtermate harvester. Scintilation cocktail is then melted onto microwave-dried filters on a hot plate and the radio activity is counted in Microbia counter.
The target in assay [9] is 5-hydroxytryptamine receptor 2A (Homo sapiens) (UniProt P28223).
Chain of 5-hydroxytryptamine receptor 2A (Homo sapiens) (P28223 whole entry): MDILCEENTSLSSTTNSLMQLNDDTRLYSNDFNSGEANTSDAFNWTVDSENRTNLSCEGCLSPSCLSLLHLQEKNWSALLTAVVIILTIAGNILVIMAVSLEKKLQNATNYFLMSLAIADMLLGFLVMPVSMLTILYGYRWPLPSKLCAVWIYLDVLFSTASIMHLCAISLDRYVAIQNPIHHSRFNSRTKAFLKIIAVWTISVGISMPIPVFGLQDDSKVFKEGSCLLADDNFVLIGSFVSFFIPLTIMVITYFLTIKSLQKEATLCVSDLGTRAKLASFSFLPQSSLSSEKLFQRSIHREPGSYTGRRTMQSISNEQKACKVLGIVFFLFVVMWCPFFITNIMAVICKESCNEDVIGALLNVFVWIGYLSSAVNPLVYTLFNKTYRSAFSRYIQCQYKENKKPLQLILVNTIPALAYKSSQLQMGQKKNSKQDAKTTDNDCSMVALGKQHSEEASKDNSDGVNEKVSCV
Description: PDSP Primary Binding target: HTR2A - Compounds are tested at 10 uM concentration, plate are incubated at room temperature in the dark for 90 minutes. Reaction are stopped by vacuum filtration onto 0.3% polyethyleneimine soaked filter mats using Filtermate harvester. Scintilation cocktail is then melted onto microwave-dried filters on a hot plate and the radio activity is counted in Microbia counter.
Assay [10] addresses 5-hydroxytryptamine receptor 2B (Homo sapiens) (UniProt P41595).
Description: PDSP Primary Binding target: HTR2B - Compounds are tested at 10 uM concentration, plate are incubated at room temperature in the dark for 90 minutes. Reaction are stopped by vacuum filtration onto 0.3% polyethyleneimine soaked filter mats using Filtermate harvester. Scintilation cocktail is then melted onto microwave-dried filters on a hot plate and the radio activity is counted in Microbia counter.
The target of assay [11] is Kappa-type opioid receptor (Homo sapiens) (UniProt P41145).
Chain of Kappa-type opioid receptor (Homo sapiens) (P41145 whole entry): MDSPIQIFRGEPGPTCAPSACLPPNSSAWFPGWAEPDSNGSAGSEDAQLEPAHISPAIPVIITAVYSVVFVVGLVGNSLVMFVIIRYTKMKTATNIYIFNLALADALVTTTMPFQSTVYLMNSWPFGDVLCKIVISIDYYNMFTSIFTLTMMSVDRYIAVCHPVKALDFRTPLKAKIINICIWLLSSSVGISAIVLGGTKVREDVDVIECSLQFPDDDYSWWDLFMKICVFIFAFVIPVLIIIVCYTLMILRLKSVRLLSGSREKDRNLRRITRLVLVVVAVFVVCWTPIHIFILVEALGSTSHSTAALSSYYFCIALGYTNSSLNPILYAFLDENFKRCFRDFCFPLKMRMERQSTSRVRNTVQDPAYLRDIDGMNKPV
Description: PDSP Primary Binding target: OPRK1 - Compounds are tested at 10 uM concentration, plate are incubated at room temperature in the dark for 90 minutes. Reaction are stopped by vacuum filtration onto 0.3% polyethyleneimine soaked filter mats using Filtermate harvester. Scintilation cocktail is then melted onto microwave-dried filters on a hot plate and the radio activity is counted in Microbia counter.
Assay [12] deals with Mu-type opioid receptor (Homo sapiens) (UniProt P35372).
Description: PDSP Primary Binding target: OPRM1 - Compounds are tested at 10 uM concentration, plate are incubated at room temperature in the dark for 90 minutes. Reaction are stopped by vacuum filtration onto 0.3% polyethyleneimine soaked filter mats using Filtermate harvester. Scintilation cocktail is then melted onto microwave-dried filters on a hot plate and the radio activity is counted in Microbia counter.
Assay [13] has as its target Sigma non-opioid intracellular receptor 1 (Homo sapiens) (UniProt Q99720).
Description: PDSP Primary Binding target: SIGMAR1 - Compounds are tested at 10 uM concentration, plate are incubated at room temperature in the dark for 90 minutes. Reaction are stopped by vacuum filtration onto 0.3% polyethyleneimine soaked filter mats using Filtermate harvester. Scintilation cocktail is then melted onto microwave-dried filters on a hot plate and the radio activity is counted in Microbia counter.
Assay [14] deals with Sodium-dependent dopamine transporter (Homo sapiens) (UniProt Q01959).
Chain of Sodium-dependent dopamine transporter (Homo sapiens) (Q01959 whole entry): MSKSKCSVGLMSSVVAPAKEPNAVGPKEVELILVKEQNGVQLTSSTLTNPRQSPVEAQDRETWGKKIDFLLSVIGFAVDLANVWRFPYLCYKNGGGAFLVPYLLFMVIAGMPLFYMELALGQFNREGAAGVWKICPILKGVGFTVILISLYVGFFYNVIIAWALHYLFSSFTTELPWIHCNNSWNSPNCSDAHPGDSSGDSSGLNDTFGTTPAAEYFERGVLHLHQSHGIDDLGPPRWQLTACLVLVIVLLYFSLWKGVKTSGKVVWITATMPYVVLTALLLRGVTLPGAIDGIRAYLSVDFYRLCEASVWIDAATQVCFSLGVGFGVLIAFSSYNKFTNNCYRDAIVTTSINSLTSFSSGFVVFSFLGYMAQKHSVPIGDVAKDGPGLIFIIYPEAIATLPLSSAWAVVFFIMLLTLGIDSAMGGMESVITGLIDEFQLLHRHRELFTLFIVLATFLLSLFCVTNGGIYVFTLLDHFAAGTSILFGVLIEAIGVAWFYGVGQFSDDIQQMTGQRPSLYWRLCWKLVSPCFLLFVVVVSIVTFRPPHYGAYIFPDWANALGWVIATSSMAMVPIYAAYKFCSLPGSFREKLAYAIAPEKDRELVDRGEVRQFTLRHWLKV
Description: PDSP Primary Binding target: SLC6A3 - Compounds are tested at 10 uM concentration, plate are incubated at room temperature in the dark for 90 minutes. Reaction are stopped by vacuum filtration onto 0.3% polyethyleneimine soaked filter mats using Filtermate harvester. Scintilation cocktail is then melted onto microwave-dried filters on a hot plate and the radio activity is counted in Microbia counter.
The target in assay [15] is Sigma intracellular receptor 2 (Homo sapiens) (UniProt Q5BJF2).
Description: PDSP Primary Binding target: TMEM97 - Compounds are tested at 10 uM concentration, plate are incubated at room temperature in the dark for 90 minutes. Reaction are stopped by vacuum filtration onto 0.3% polyethyleneimine soaked filter mats using Filtermate harvester. Scintilation cocktail is then melted onto microwave-dried filters on a hot plate and the radio activity is counted in Microbia counter.
The target of assay [16] is Translocator protein (Homo sapiens) (UniProt P30536).
Description: PDSP Primary Binding target: TSPO - Compounds are tested at 10 uM concentration, plate are incubated at room temperature in the dark for 90 minutes. Reaction are stopped by vacuum filtration onto 0.3% polyethyleneimine soaked filter mats using Filtermate harvester. Scintilation cocktail is then melted onto microwave-dried filters on a hot plate and the radio activity is counted in Microbia counter.
The target of assay [17] is Beta-3 adrenergic receptor (Homo sapiens) (UniProt P13945).
Chain of Beta-3 adrenergic receptor (Homo sapiens) (P13945 whole entry, looked up): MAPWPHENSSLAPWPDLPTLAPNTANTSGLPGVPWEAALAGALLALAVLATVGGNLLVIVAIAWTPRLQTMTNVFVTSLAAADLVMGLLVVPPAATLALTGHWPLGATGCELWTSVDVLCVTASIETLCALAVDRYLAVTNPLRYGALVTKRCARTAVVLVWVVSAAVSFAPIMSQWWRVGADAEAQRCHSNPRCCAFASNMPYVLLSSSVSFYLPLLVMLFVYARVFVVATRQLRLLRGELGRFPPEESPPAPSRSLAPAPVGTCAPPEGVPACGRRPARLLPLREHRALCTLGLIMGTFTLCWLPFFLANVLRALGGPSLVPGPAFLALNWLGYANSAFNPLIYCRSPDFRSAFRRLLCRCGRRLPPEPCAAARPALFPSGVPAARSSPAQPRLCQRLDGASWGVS
Description: PDSP Primary Binding target: ADRB3 - Compounds are tested at 10 uM concentration, plate are incubated at room temperature in the dark for 90 minutes. Reaction are stopped by vacuum filtration onto 0.3% polyethyleneimine soaked filter mats using Filtermate harvester. Scintilation cocktail is then melted onto microwave-dried filters on a hot plate and the radio activity is counted in Microbia counter.
In assay [18] the target is Histamine H2 receptor (Homo sapiens) (UniProt P25021).
Chain of Histamine H2 receptor (Homo sapiens) (P25021 whole entry): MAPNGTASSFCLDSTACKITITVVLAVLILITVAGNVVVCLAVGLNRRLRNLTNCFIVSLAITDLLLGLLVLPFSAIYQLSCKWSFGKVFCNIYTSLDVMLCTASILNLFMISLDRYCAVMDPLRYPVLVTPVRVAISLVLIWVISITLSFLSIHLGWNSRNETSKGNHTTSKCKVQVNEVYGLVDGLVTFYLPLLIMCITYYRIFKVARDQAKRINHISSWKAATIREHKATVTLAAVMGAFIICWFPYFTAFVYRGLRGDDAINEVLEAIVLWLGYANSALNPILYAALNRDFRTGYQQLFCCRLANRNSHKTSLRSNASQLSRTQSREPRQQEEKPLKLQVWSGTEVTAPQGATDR
Description: PDSP Primary Binding target: HRH2 - Compounds are tested at 10 uM concentration, plate are incubated at room temperature in the dark for 90 minutes. Reaction are stopped by vacuum filtration onto 0.3% polyethyleneimine soaked filter mats using Filtermate harvester. Scintilation cocktail is then melted onto microwave-dried filters on a hot plate and the radio activity is counted in Microbia counter.
For assay [19], the target named is D(1B) dopamine receptor (Homo sapiens) (UniProt P21918).
Chain of D(1B) dopamine receptor (Homo sapiens) (P21918 whole entry): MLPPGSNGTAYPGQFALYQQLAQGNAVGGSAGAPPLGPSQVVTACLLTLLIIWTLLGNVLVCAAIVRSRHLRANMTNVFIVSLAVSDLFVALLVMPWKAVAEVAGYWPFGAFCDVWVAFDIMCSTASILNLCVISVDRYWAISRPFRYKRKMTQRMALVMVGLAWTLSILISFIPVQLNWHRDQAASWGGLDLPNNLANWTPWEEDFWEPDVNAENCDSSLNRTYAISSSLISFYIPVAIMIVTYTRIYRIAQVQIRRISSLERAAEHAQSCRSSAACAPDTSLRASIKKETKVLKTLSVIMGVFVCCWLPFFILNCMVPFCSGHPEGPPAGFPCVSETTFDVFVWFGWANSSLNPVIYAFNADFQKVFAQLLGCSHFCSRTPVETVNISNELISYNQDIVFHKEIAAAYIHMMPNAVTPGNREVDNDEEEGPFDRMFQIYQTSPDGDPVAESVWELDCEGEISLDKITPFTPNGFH
Description: PDSP Primary Binding target: DRD5 - Compounds are tested at 10 uM concentration, plate are incubated at room temperature in the dark for 90 minutes. Reaction are stopped by vacuum filtration onto 0.3% polyethyleneimine soaked filter mats using Filtermate harvester. Scintilation cocktail is then melted onto microwave-dried filters on a hot plate and the radio activity is counted in Microbia counter.
The target of assay [20] is T3, 5-hydroxytryptamine receptor 2C (Homo sapiens) (UniProt P28335).
T3 sequence (whole entry): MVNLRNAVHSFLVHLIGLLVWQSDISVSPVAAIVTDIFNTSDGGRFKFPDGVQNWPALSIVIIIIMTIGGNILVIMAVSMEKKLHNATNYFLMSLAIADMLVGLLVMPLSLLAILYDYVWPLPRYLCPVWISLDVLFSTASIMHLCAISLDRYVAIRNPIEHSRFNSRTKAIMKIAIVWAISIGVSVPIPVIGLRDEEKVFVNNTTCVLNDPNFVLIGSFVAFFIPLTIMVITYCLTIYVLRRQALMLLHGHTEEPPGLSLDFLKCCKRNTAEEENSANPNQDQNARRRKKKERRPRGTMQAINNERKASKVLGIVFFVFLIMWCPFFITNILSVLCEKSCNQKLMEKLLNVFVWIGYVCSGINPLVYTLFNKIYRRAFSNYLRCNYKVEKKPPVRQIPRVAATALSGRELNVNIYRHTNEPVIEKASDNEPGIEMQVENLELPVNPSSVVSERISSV
Description: PDSP Primary Binding target: HTR2C - Compounds are tested at 10 uM concentration, plate are incubated at room temperature in the dark for 90 minutes. Reaction are stopped by vacuum filtration onto 0.3% polyethyleneimine soaked filter mats using Filtermate harvester. Scintilation cocktail is then melted onto microwave-dried filters on a hot plate and the radio activity is counted in Microbia counter.

The target of assay [21] is T4, Muscarinic acetylcholine receptor M5 (Homo sapiens) (UniProt P08912).
T4 sequence (whole entry): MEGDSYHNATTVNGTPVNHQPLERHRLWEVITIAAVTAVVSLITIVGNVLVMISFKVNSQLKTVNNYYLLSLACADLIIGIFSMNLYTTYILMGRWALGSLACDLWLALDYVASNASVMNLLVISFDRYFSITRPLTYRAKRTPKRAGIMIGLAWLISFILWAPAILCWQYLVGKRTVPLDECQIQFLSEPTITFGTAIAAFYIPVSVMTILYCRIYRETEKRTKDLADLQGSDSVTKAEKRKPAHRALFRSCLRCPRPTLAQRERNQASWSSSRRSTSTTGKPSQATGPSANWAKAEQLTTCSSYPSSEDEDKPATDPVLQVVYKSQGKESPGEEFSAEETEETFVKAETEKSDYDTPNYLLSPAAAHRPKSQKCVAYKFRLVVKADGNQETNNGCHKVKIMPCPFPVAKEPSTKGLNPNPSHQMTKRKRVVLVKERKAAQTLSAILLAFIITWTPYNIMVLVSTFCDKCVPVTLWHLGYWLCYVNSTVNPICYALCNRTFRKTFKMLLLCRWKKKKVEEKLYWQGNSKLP
Description: PDSP Primary Binding target: CHRM5 - Compounds are tested at 10 uM concentration, plate are incubated at room temperature in the dark for 90 minutes. Reaction are stopped by vacuum filtration onto 0.3% polyethyleneimine soaked filter mats using Filtermate harvester. Scintilation cocktail is then melted onto microwave-dried filters on a hot plate and the radio activity is counted in Microbia counter.

Chain of D(2) dopamine receptor (Homo sapiens) (P14416 whole entry): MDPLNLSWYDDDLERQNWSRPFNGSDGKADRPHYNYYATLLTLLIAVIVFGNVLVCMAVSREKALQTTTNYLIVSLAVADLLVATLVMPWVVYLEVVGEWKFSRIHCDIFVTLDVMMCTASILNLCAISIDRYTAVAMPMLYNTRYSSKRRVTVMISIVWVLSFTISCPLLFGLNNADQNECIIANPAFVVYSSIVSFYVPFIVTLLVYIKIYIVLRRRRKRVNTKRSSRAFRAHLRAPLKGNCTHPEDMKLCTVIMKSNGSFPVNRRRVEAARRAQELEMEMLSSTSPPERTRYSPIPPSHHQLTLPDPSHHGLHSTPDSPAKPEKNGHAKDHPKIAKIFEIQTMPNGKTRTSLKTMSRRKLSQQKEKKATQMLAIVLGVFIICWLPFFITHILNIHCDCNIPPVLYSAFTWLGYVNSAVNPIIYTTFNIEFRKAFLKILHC
Chain of 5-hydroxytryptamine receptor 1B (Homo sapiens) (P28222 whole entry): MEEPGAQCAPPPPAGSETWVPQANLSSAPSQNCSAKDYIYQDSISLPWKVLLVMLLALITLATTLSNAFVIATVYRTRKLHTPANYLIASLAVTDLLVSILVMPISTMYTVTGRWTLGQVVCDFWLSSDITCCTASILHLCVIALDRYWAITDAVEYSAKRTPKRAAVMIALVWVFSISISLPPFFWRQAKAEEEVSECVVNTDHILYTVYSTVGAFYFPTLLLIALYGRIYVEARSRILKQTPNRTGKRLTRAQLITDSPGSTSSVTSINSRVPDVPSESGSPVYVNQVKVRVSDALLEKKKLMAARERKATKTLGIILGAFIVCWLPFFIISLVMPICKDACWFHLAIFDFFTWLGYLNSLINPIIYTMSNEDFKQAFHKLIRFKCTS

By inhibition is commonly meant the relative decrease from the control value, in per cent. For the molecule `C[C@H](Cc1cc2c(c(C(N)=O)c1)N(CCCO)CC2)NCCOc1ccccc1OCC(F)(F)F`, the inhibition was 69.7% in assay [1]; 31.1% in assay [2]; 99% in assay [3]; 20.8% in [4]; -5.84% in [5]; 55.5% in assay [6]. For the same molecule, the inhibition is 92.3% in assay [7]; 90.2% in assay [8]; 36.2% in assay [9]; 71.7% in assay [10]; 4.22% in [11]; 38.8% in [12]. Besides, the inhibition in assay [13] was 38.9%; in assay [14] it was 35.5%; in assay [15] it was 17.6%; in assay [16], 2.96%; in [17] it was 11%; in [18] it was 34.6%.

Take `CCCCCNC(=O)NS(=O)(=O)c1cc([N+](=O)[O-])ccc1NC1CCCCC1`: the inhibition in assay [1] is -2.94%; in assay [2] it was 18.5%; in assay [3], -4.07%; in assay [4], -6.06%; in [5] it was -2.52%; in assay [6] it was 7.7%. Besides, the inhibition was 4.44% in assay [19]; 0.02% in [7]; 12.4% in [8]; -9.68% in assay [10]; 11.4% in assay [20]; 14.7% in [11]. Also, the inhibition in assay [12] is 26.7%; in assay [13], 16%; in assay [14], 26.3%; in assay [15], 3.25%; in assay [16], 34.5%; in assay [17], 39.7%. Also, the inhibition in [18] is -2.95%.

For the molecule `CC(C)(N)C(=O)N[C@H](COCc1ccccc1)C(=O)N1CCC2(CC1)CN(S(C)(=O)=O)c1ccccc12`, the inhibition was -5.98% in assay [1]; 30.4% in [2]; -3.52% in assay [3]; 5.22% in [21]; 22.7% in [6]; -1.48% in assay [19]. Moreover, the inhibition in assay [8] was 30.2%; in assay [9], 6.83%; in assay [10], 3.09%; in [20] it was -2.12%; in assay [11], 17.4%; in assay [12], 12.8%. Moreover, the inhibition in assay [13] is 16.4%; in assay [14] it was 39.5%; in [15], 21.1%; in [16], 9.25%; in assay [17], 15.2%; in [18], 5.6%.

`COc1ccc(S(=O)(=O)N2c3ccc(Cl)cc3[C@](O)(c3ccccc3Cl)[C@@H]2C(=O)N2CCC[C@H]2C(N)=O)cc1OC`: the inhibition is 0.34% in [1]; 28.5% in [2]; 6.53% in assay [3]; 7.17% in [21]; 11.8% in assay [6]; 6.02% in assay [8]. The inhibition is -2.13% in assay [9]; 0.08% in assay [10]; 21.8% in assay [20]; 16.3% in [11]; 38.8% in assay [12]; 16.4% in assay [13]. For the same molecule, the inhibition in assay [14] was 42.4%; in [17] it was 31.7%; in [18], 15.4%.

Regarding `COc1ccc(/C=C/CCCCOc2ccc(C(=O)c3cccc(C(=O)O)c3)cc2CCC(=O)O)cc1`, the inhibition in [1] is 29.1%; in [2], 49.6%; in [21] it was 3.16%; in assay [5], -0.17%; in assay [6], 28.2%; in assay [7], 29.9%. Also, the inhibition in assay [8] was 31.8%; in [9], 33.6%; in assay [10] it was -2.42%; in [20] it was 3.04%; in [11] it was 10.7%; in assay [12] it was 22.4%. The inhibition was 11.6% in assay [13]; 23.6% in assay [14]; 2.85% in [15]; 35.5% in [16]; 30.7% in assay [17]; 21.3% in [18].

As to `Cc1c(OCc2cccc(-c3ccc(C(=O)O)cc3)c2)cc2c(c1C)C(=O)C(C1CCCC1)C2` (stereo not drawn), the inhibition in assay [2] was -9.82%; in assay [3], -5.2%; in assay [4] it was -9.01%; in assay [5], -5.51%; in [6], -2.54%; in assay [7], 4.33%. The inhibition in [8] was 0.61%; in assay [9] it was 6.01%; in assay [20], 6.16%; in assay [11], -0.11%; in [13], -6.04%; in [15] it was -3.24%. For the same molecule, the inhibition was 17.6% in assay [16], 76.5% in [17] and 25.4% in [18].

Turning to `COc1ccc(OC(F)(F)F)cc1CN[C@H]1CCCN[C@H]1c1ccccc1`, the inhibition in assay [1] was 0.54%; in [2], 1.65%; in assay [3], -1.91%; in assay [4] it was 13.7%; in [5] it was 4.84%; in assay [6], 16.6%. For the same molecule, the inhibition is -8.91% in assay [19]; 10% in [7]; -4.51% in assay [8]; 64.8% in [9]; 87.7% in assay [10]; 58.5% in [20]. Moreover, the inhibition is 21.1% in [11]; 41.3% in [12]; 59.9% in assay [13]; 57.6% in [14]; 90.5% in assay [15]; 17.5% in assay [16]. In addition, the results for the inhibition in assay [17] and in assay [18] were 6.31% and 42.3%, respectively.
